From US9522923B2, “Selective BACE1 inhibitors” (Eli Lilly and Company, priority 2015, dated 2016) come the findings set out here.

The IC50 is the concentration needed to halve the response being measured.

The target of one assay is T1, human BACE1(1-460):Fc (Homo sapiens, UniProt P56817).
T1 construct: made in house; host or cells: HEK293 (transient transfection, purified from conditioned media by Protein A)
The assay can be described thus: BACE1 FRET Assay. Type of assay: biochemical. The conditions noted are these: purified recombinant huBACE1:Fc, FRET substrate based on APP; Mean±SEM 0.48, n=4. As for the experimental part: (§1) To assess selectivity of BACE1 over BACE2, the test compound is evaluated in FRET-based enzymatic assays using specific substrates for BACE1 and BACE2 as described below. For in vitro enzymatic and cellular assays, the test compound is prepared in DMSO to make up a 10 mM stock solution. The stock solution is serially diluted in DMSO to obtain a ten-point dilution curve with final compound concentrations ranging from 10 μM to 0.05 nM in a 96-well round-bottom plate before conducting the in vitro enzymatic and whole cell assays.
Human BACE1 (accession number: AF190725) and human BACE2 (accession number: AF 204944) are cloned from total brain cDNA by RT-PCR. The nucleotide sequences corresponding to amino acid sequences #1 to 460 are inserted into the cDNA encoding human IgG1 (Fc) polypeptide (Vassar et al., Science, 286, 735-742 (1999)). […]
(§2) Conditioned media of HEK293 cell transiently transfected with huBACE1:Fc or huBACE2:Fc cDNA are collected. […] The purity of final product is assessed by electrophoresis in 4-20% Tris-Glycine SDS-PAGE. […]
Serial dilutions of the test compound are prepared as described above. […] The RFU of the mixture at time 0 is recorded at excitation wavelength 355 nm and emission wavelength 460 nm, after brief mixing on a plate shaker. […] The RFU at the end of incubation is recorded with the same excitation and emission settings used at time 0. […]

The next assay addresses T2, BACE1 (Homo sapiens, UniProt P56817).
T2 construct: endogenous in cells; host or cells: SH-SY5Y (ATCC CRL2266) stably expressing human APP695Wt
Put plainly: SH-SY5YAPP695Wt Whole Cell Assay (Abeta ELISA). The conditions noted are these: 24 hours incubation, conditioned media, Mean ± SEM, n = 4. Type of assay: cell-based. The method, then: as §1
The routine whole cell assay for the measurement of inhibition of BACE1 activity utilizes the human neuroblastoma cell line SH-SY5Y (ATCC Accession No. CRL2266) stably expressing a human APP695Wt cDNA. Cells are routinely used up to passage number 6 and then discarded.
SH-SY5YAPP695Wt cells are plated in 96 well tissue culture plates at 5.0×10^4 cells/well in 200 μL culture media (50% MEM/EBSS and Ham's F12, lx each sodium pyruvate, non-essential amino acids and Na bicarbonate containing 10% FBS). The following day, media is removed from the cells, fresh media added then incubated at 37° C. for 24 hours in the presence/absence of test compound at the desired concentration range.
At the end of the incubation, conditioned media are analyzed for evidence of beta-secretase activity by analysis of Abeta peptides 1-40 and 1-42 by specific sandwich ELISAs. […]
(In general: ELISA stands for enzyme-linked immunosorbent assay.)

The target in the next assay is T3, human BACE2 (1-460):Fc (Homo sapiens, UniProt Q9Y5Z0).
T3 construct: made in house; host or cells: HEK293 (transient transfection, purified from conditioned media by Protein A)
T3 sequence (Q9Y5Z0 21-460): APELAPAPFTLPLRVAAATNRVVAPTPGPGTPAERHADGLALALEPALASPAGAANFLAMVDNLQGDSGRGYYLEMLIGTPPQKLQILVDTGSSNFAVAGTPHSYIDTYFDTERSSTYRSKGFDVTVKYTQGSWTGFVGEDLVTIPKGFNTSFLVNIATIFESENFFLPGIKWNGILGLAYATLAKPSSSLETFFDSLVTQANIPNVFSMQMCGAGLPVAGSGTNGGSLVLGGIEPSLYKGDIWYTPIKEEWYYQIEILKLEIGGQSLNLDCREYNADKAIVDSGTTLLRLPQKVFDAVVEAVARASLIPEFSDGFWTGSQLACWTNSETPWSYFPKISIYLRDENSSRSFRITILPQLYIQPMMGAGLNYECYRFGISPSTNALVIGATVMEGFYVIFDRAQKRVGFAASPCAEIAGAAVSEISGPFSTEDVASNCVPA
The assay can be described thus: BACE2 TMEM27 FRET Assay. The class given is biochemical. The method, then:
as §1
Human BACE1 (accession number: AF190725) and human BACE2 (accession number: AF 204944) are cloned from total brain cDNA by RT-PCR. […]
as §2
Transmembrane protein 27 (TMEM27) (Accession Number NM_020665), also known as Collectrin) is a recently described substrate for BACE2, but not BACE1 (Esterhazy, et al, Cell Metabolism, 14, 365-377 (2011)). […] The RFU of the mixture at time 0 is recorded at excitation wavelength 430 nm and emission wavelength 535 nm. […] The RFU at the end of incubation is recorded with the same excitation and emission settings used at time 0. […]

Like-named read-outs stand apart in the source and are kept apart here.

T2 sequence (P56817 46-501): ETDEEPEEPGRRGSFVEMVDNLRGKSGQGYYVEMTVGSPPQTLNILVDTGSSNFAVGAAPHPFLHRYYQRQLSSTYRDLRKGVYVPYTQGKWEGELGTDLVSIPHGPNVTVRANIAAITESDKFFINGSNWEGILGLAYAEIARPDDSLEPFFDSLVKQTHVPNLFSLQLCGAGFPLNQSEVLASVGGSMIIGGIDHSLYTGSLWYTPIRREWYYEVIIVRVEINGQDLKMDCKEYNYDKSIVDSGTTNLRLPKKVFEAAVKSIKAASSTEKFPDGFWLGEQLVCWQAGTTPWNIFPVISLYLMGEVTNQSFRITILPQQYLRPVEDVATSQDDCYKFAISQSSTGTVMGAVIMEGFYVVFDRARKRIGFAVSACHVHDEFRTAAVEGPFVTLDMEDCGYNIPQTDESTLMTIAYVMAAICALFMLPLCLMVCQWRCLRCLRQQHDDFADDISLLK
T1 sequence (P56817 22-460): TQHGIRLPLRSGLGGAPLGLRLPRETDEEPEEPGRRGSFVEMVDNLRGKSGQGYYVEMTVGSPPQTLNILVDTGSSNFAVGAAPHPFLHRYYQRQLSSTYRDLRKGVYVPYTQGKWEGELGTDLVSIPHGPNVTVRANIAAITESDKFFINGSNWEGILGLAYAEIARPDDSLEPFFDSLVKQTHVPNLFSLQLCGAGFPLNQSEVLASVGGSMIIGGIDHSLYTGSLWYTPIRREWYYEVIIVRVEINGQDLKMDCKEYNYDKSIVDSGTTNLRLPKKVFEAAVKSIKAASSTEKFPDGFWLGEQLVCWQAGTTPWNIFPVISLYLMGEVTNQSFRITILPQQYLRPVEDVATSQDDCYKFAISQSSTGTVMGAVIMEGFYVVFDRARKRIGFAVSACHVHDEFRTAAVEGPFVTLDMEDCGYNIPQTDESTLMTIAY

As to `CC(F)(F)[C@H]1OC[C@]2(c3cc(NC(=O)c4cnc(-n5cncn5)cn4)ccc3F)N=C(N)SC[C@H]12` [Example 1, N-[3-[(4aS,5S,7aS)-2-Amino-5-(1,1-difluoroethyl)-4,4a,5,7-tetrahydrofuro[3,4-d][1,3]thiazin-7a-yl]-4-fluoro-phenyl]-5-(1,2,4-triazol-1-yl)pyrazine-2-carboxamide], the IC50 came to 1.19 nM at human BACE1(1-460):Fc; 0.385 ± 0.163 nM at BACE1 (read-out: SH-SY5YAPP695Wt A-beta (1-40) ELISA IC50); 0.381 ± 0.266 nM on BACE1 (read-out: SH-SY5YAPP695Wt A-beta (1-42) ELISA IC50); 479 nM on human BACE2 (1-460):Fc (huBACE2:Fc, TMEM27 FRET substrate, Mean±SEM 202, n=4). In addition, the “BACE2 IC50 / BACE1 IC50 ratio (selectivity for BACE1)” value on human BACE2 (1-460):Fc (selectivity for BACE1 over BACE2) is listed as “about 400 fold”.
